Assay results reported in patent publication US20050069948A1, “Screening method” (priority 2002, published 2005).
One block for each molecule: values may come before it.

Assays:
human Egr-1 (human) = human Egr-1 (human) (UniProt P18146); test: plate assay: Egr-1 from HEK293 lysate captured on biotinylated double-stranded DNA with the Egr-1 binding sequence (SEQ ID NO: 10) on a streptavidin plate, detected with anti-Egr-1 polyclonal antibody and HRP anti-rabbit IgG
[1] = system: Egr-1, TGF-β1, PDGF-B, fibronectin and α1 (I) collagen mRNA in the kidney of Zucker Fatty Rats; test: mRNA expression levels in the kidney of Zucker fatty rats (real time quantitative RT-PCR); assay type: in vivo, rat
Procedure: (§1) To the control group and the normal control group, i.e., male Zucker lean rats (ZL rat, Charles River Japan Inc.) with the same age, 0.5% methylcellulose 100 cP (Vehicle) was administered once per day everyday. Eight weeks after administration, urine was accumulated for 24 hours, and then the urinary albumin excretion was determined using A/G B Test Wako (Wako Pure Chemical Industries). Nine weeks after administration, the kidneys were collected and stored at −80° C., and subsequently the kidneys were crushed to extract the total RNA. The primers and fluorescent probe were prepared on the basis of the mRNA sequence previously reported, and then the amount of each of individual mRNAs was determined using ABI PRISM 7700 (Applied Biosystems) by the real time quantitative RT-PCR method.

Egr-1 mRNA = Egr-1 mRNA expression in rat glomerular mesangial cells after FCS or AII stimulus (RT-PCR); assay type: cell-based; conditions: 30 minutes after FCS (20%) stimulus; Candesartan 10^−5 M added 5 minutes before; relative value, before stimulus = 1; n = 3, Mean
Procedure: Glomerular mesangial cells ([…] 7) isolated and cultivated from a male Sprague-Dawley rat (SD rat, Japan Crea) of the age of 4 weeks were cultivated in DMEM medium containing 20% fetal calf serum (FCS) for 4 days, and then the cells were cultivated in DMEM containing 0.2% bovine serum albumin for 3 days. To the cells after cultivation, FCS (20%) or angiotensin II (AII) (10^-6M) was added, and then the resulting mixture was reacted at 37° C. for 30 minutes. The AII type I receptor antagonist Candesartan of 10^-5 M as the final concentration was added to the medium 5 minutes prior to the stimulation of FCS or AII. Thirty minutes after FCS or AII stimulus, total RNA was extracted. The primers and fluorescent probe were prepared on the basis of the mRNA sequence previously reported, and subsequently the level of Egr-1 mRNA expression was determined using ABI PRISM 7700 (Applied Biosystems) by the real time quantitative RT-PCR method.

male Zucker fatty rat = test: Urinary albumin excretion in Zucker fatty rats; assay type: in vivo
Procedure: as §1

tissue factor mRNA = test: Tissue factor mRNA expression in rat glomerular mesangial cells after bFGF stimulus (quantitative RT-PCR); assay type: cell-based; conditions: ODN 20 μM for 24 hours, two hours after bFGF (3 ng/ml) stimulus, relative value, control = 1, n = 2-3, Mean
Source text: (§2) Glomerular mesangial cells (passege 4-5) isolated and cultivated from a male SD rat with 4 weeks age were cultivated for 3 to 4 days in DMEM medium containing 20% fetal bovine serum to sub-confluence, and the medium was changed to DMEM containing a 0.2% bovine serum albumin and then the resulting material was subjected to serum starvation. Forty-eight hours after initiation of the serum starvation, Egr-1 AS-ODN (SEQ ID NO: 7) or a Control-ODN (the scrambled ODNs that were matched with the AS-ODN in size and the number of bases, both synthesized by BIOGNOSTIK Corp.) with a concentration of 20 μM was added to the medium and the resultant material was allowed to stand in a CO2 incubator for 24 hours. Thereafter the material was stimulated with a basic fibroblast growth factor (bFGF) (3 ng/ml), and then was reacted at 37° C. for 1 to 2 hours. A protein was extracted from the cell one hour after bFGF stimulus, and total RNA was extracted from a cell two hours after bFGF stimulus. […] The brightness accumulation value of the band thus detected was calculated by a CS Analyzer 1.00a (ATTO). Also, the mRNA expression level of the tissue factor was determined by making the primer and fluorescent probe on the basis of the mRNA sequence previously reported and by using ABI PRISM 7700 (Applied Biosystems) by means of the quantitative RT-PCR method.

[2] = system: Glomerular mesangial cells; test: Cytotoxicity by transfection in rat glomerular mesangial cells; assay type: cell-based; conditions: ODN 20 μM
Egr-1 protein = Egr-1 protein expression in rat glomerular mesangial cells after bFGF stimulus (Western blotting); assay type: cell-based; conditions: ODN 20 μM for 24 hours, one hour after bFGF (3 ng/ml) stimulus, relative value, control = 1, n = 2-3, Mean
Egr-1 protein, sequence (P08154 whole entry): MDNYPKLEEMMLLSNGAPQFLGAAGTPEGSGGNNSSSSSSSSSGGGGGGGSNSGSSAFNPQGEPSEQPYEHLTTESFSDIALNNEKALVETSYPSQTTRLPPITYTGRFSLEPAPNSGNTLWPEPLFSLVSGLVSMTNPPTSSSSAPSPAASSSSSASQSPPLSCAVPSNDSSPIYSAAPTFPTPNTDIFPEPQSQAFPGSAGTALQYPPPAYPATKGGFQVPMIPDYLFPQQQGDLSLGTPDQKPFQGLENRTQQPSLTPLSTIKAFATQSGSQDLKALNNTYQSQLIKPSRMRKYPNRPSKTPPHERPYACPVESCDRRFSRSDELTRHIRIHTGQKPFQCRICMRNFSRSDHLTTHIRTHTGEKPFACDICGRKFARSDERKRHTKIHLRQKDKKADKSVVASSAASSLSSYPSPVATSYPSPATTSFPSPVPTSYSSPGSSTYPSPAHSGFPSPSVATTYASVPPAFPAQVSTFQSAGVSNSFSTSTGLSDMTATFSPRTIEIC
Source text: as §2

[3] = ZF rat, nine weeks after administration, relative value, ZL rat = 1, n = 8-9, Mean

human Egr-1 (human), sequence (P18146 whole entry): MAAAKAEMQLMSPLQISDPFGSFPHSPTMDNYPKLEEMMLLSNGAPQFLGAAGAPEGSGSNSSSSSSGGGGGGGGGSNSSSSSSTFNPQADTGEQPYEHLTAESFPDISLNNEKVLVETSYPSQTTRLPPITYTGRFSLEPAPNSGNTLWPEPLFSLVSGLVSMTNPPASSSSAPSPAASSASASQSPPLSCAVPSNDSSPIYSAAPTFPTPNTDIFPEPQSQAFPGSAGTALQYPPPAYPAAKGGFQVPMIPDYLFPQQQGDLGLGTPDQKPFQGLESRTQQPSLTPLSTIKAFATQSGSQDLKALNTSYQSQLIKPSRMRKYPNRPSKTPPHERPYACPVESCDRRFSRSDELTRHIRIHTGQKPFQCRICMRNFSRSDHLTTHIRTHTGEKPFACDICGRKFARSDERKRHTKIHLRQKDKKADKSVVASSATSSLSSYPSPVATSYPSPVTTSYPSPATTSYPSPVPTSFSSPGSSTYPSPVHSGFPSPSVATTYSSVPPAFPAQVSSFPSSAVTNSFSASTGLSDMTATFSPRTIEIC

absorbance at 450 nm (absorbance (450 nm)) (human Egr-1 (human)): 0.751
Molecule: anti-Egr-1 antigen (rabbit, polyclonal antibody, SANTA CRUZ Corp., sc-189)

Molecule: CCOc1nc2cccc(C(=O)O)c2n1Cc1ccc(-c2ccccc2-c2nnn[nH]2)cc1 [Candesartan]
Egr-1 mRNA expression level in the kidney [1, 3]: 1.3 | Fibronectin mRNA expression level in the kidney [1, 3]: 1.1 | PDGF-B mRNA expression level in the kidney [1, 3]: 1.0 | TGF-β1 mRNA expression level in the kidney [1, 3]: 1.2 | α1 (I) collagen mRNA expression level in the kidney [1, 3]: 1.6 | Egr-1 mRNA expression level (Egr-1 mRNA): 18.4

Molecule: CCOc1nc2cccc(C(=O)OC(C)OC(=O)OC3CCCCC3)c2n1Cc1ccc(-c2ccccc2-c2nnn[nH]2)cc1 (stereo not drawn) [Candesartan cilexetil]
Urinary albumin excretion (male Zucker fatty rat; ZF rat, orally once per day, eight weeks after administration, 24 hours urine, n = 8-9, Mean): 61.7 mg/day | Increase in the urinary albumin excretion (in words) (male Zucker fatty rat; Zucker fatty rat, oral administration once per day): inhibition of an increase | Increase in the level of Egr-1, TGF-β1, PDGF-B, fibronectin and α1(I) collagen mRNA expression in the kidney (in words) ([1]; Zucker fatty rat, oral administration once per day for 9 weeks): inhibits the increase

Molecule: AS-ODN: Egr-1 antisense oligodeoxynucleotide (SEQ ID NO: 7), synthesized by BIOGNOSTIK Corp. (antisense GCGGGGTGCAGGGGCACACT; DNA, backbone and methylation of C not given here)
Tissue factor mRNA expression (tissue factor mRNA): 1.1 | Tissue factor mRNA expression (tissue factor mRNA; listed as Egr-1 AS-ODN): almost completely suppressed | Cytotoxicity by transfection [2]: not observed | Egr-1 protein expression (Egr-1 protein): 2.0 | Egr-1 protein expression (Egr-1 protein; listed as Egr-1 AS-ODN): suppressed
